Experimental data taken from ChEMBL document CHEMBL1697731, “Cheminformatics analysis of assertions mined from literature that describe drug-induced liver injury in different species” (Chem Res Toxicol, 2010).

Assays:
Hepatotoxicity [1] = assay: Literature-mined compound from Fourches et al multi-species drug-induced liver injury (DILI) dataset, effect in humans; details: human
Hepatotoxicity [2] = assay: Literature-mined compound from Fourches et al multi-species drug-induced liver injury (DILI) dataset, effect in rodents; details: rodentia
Hepatotoxicity [3] = assay: Literature-mined compound from Fourches et al multi-species drug-induced liver injury (DILI) dataset, effect in non-rodents

C#C[C@]1(O)CC[C@H]2[C@@H]3CCC4=CCCC[C@@H]4[C@H]3C(=C)C[C@@]21CC.C#C[C@]1(O)CC[C@H]2[C@@H]3CCc4cc(O)ccc4[C@H]3CC[C@@]21C [MARVELON]
Hepatotoxicity (Hepatotoxicity [1]): drug-induced liver injury reported
Hepatotoxicity (Hepatotoxicity [2]): no drug-induced liver injury reported
Hepatotoxicity (Hepatotoxicity [3]): no drug-induced liver injury reported

CC(C)CC(N(C)C)C1(c2ccc(Cl)cc2)CCC1 (centres undefined) [SIBUTRAMINE]
Hepatotoxicity (Hepatotoxicity [1]): drug-induced liver injury reported
Hepatotoxicity (Hepatotoxicity [2]): no drug-induced liver injury reported
Hepatotoxicity (Hepatotoxicity [3]): no drug-induced liver injury reported

CC(O)C(=O)O (centres undefined) [LACTIC ACID]
Hepatotoxicity (Hepatotoxicity [1]): drug-induced liver injury reported
Hepatotoxicity (Hepatotoxicity [2]): drug-induced liver injury reported
Hepatotoxicity (Hepatotoxicity [3]): drug-induced liver injury reported

Nc1nc2c(ncn2COCCO)c(=O)[nH]1 [ACYCLOVIR]
Hepatotoxicity (Hepatotoxicity [1]): drug-induced liver injury reported
Hepatotoxicity (Hepatotoxicity [2]): drug-induced liver injury reported
Hepatotoxicity (Hepatotoxicity [3]): no drug-induced liver injury reported

O=C1OCCN1/N=C/c1ccc([N+](=O)[O-])o1 [FURAZOLIDONE]
Hepatotoxicity (Hepatotoxicity [1]): no drug-induced liver injury reported
Hepatotoxicity (Hepatotoxicity [2]): drug-induced liver injury reported
Hepatotoxicity (Hepatotoxicity [3]): no drug-induced liver injury reported

CN(C(=O)CN(CCO)CC(=O)N(C)C(C)(C)Cc1ccccc1)C(C)(C)Cc1ccccc1 [OXETHAZAINE]
Hepatotoxicity (Hepatotoxicity [1]): no drug-induced liver injury reported
Hepatotoxicity (Hepatotoxicity [2]): drug-induced liver injury reported
Hepatotoxicity (Hepatotoxicity [3]): no drug-induced liver injury reported

HYALURONIC ACID
Hepatotoxicity (Hepatotoxicity [1]): drug-induced liver injury reported
Hepatotoxicity (Hepatotoxicity [2]): drug-induced liver injury reported
Hepatotoxicity (Hepatotoxicity [3]): no drug-induced liver injury reported

CNC1=Nc2ccc(Cl)cc2C(c2ccccc2)=[N+]([O-])C1 [CHLORDIAZEPOXIDE]
Hepatotoxicity (Hepatotoxicity [1]): no drug-induced liver injury reported
Hepatotoxicity (Hepatotoxicity [2]): drug-induced liver injury reported
Hepatotoxicity (Hepatotoxicity [3]): no drug-induced liver injury reported

O=C(OCC(O)CO)c1ccccc1Nc1ccnc2cc(Cl)ccc12 (centres undefined) [GLAFENINE]
Hepatotoxicity (Hepatotoxicity [1]; Liver): drug-induced liver injury reported
Hepatotoxicity (Hepatotoxicity [2]; Liver): no drug-induced liver injury reported
Hepatotoxicity (Hepatotoxicity [3]; Liver): no drug-induced liver injury reported

CC(N/C(=N\C#N)Nc1ccncc1)C(C)(C)C (centres undefined) [PINACIDIL ANHYDROUS]
Hepatotoxicity (Hepatotoxicity [1]): drug-induced liver injury reported
Hepatotoxicity (Hepatotoxicity [2]): drug-induced liver injury reported
Hepatotoxicity (Hepatotoxicity [3]): no drug-induced liver injury reported

O=C1Nc2ccc(Cl)cc2[C@@](C#CC2CC2)(C(F)(F)F)O1 [EFAVIRENZ]
Hepatotoxicity (Hepatotoxicity [1]): drug-induced liver injury reported
Hepatotoxicity (Hepatotoxicity [2]): drug-induced liver injury reported
Hepatotoxicity (Hepatotoxicity [3]): no drug-induced liver injury reported

C[C@]12CC[C@@H]3c4ccc(OS(=O)(=O)O)cc4CC[C@H]3[C@@H]1CCC2=O [ESTRONE SULFURIC ACID]
Hepatotoxicity (Hepatotoxicity [1]): no drug-induced liver injury reported
Hepatotoxicity (Hepatotoxicity [2]): drug-induced liver injury reported
Hepatotoxicity (Hepatotoxicity [3]): no drug-induced liver injury reported

COc1ccc2cc1Oc1ccc(cc1)C[C@H]1c3cc(c(OC)cc3CCN1C)Oc1c(OC)c(OC)cc3c1[C@H](C2)N(C)CC3 [FANCHININ]
Hepatotoxicity (Hepatotoxicity [1]): drug-induced liver injury reported
Hepatotoxicity (Hepatotoxicity [2]): drug-induced liver injury reported
Hepatotoxicity (Hepatotoxicity [3]): no drug-induced liver injury reported

CCC1(CC)C(=O)NC(=O)NC1=O [BARBITAL]
Hepatotoxicity (Hepatotoxicity [1]): no drug-induced liver injury reported
Hepatotoxicity (Hepatotoxicity [2]): drug-induced liver injury reported
Hepatotoxicity (Hepatotoxicity [3]): no drug-induced liver injury reported

Cc1onc(-c2c(F)cccc2Cl)c1C(=O)N[C@@H]1C(=O)N2[C@@H]1SC(C)(C)[C@@H]2C(=O)O [FLOXACILLIN]
Hepatotoxicity (Hepatotoxicity [1]): drug-induced liver injury reported
Hepatotoxicity (Hepatotoxicity [2]): drug-induced liver injury reported
Hepatotoxicity (Hepatotoxicity [3]): no drug-induced liver injury reported

CC(C)CN(C[C@@H](O)[C@H](Cc1ccccc1)NC(=O)O[C@H]1CCOC1)S(=O)(=O)c1ccc(N)cc1
Hepatotoxicity (Hepatotoxicity [1]): drug-induced liver injury reported
Hepatotoxicity (Hepatotoxicity [2]): no drug-induced liver injury reported
Hepatotoxicity (Hepatotoxicity [3]): no drug-induced liver injury reported

CC(=O)Oc1c(C)c(C)c2c(c1C)CCC(C)(CCC[C@H](C)CCC[C@H](C)CCCC(C)C)O2 (some centres undefined) [TOCOPHEROL ACETATE]
Hepatotoxicity (Hepatotoxicity [1]): no drug-induced liver injury reported
Hepatotoxicity (Hepatotoxicity [2]): drug-induced liver injury reported
Hepatotoxicity (Hepatotoxicity [3]): no drug-induced liver injury reported

COc1ccc(C(=O)c2ccccc2)c(O)c1 [OXYBENZONE]
Hepatotoxicity (Hepatotoxicity [1]): no drug-induced liver injury reported
Hepatotoxicity (Hepatotoxicity [2]): drug-induced liver injury reported
Hepatotoxicity (Hepatotoxicity [3]): no drug-induced liver injury reported

Cn1c(=O)c2[nH]cnc2n(C)c1=O.Cn1c(=O)c2[nH]cnc2n(C)c1=O.NCCN [AMINOPHYLLINE]
Hepatotoxicity (Hepatotoxicity [1]): drug-induced liver injury reported
Hepatotoxicity (Hepatotoxicity [2]): drug-induced liver injury reported
Hepatotoxicity (Hepatotoxicity [3]): no drug-induced liver injury reported

C[C@]12CC[C@@H]3c4ccc(O)cc4CC[C@H]3[C@@H]1C[C@@H](O)[C@@H]2O [ESTRIOL]
Hepatotoxicity (Hepatotoxicity [1]): no drug-induced liver injury reported
Hepatotoxicity (Hepatotoxicity [2]): drug-induced liver injury reported
Hepatotoxicity (Hepatotoxicity [3]): no drug-induced liver injury reported

CC/C(=C(/c1ccc(OCCN(C)C)cc1)c1cccc(O)c1)c1ccccc1 [DROLOXIFENE]
Hepatotoxicity (Hepatotoxicity [1]): no drug-induced liver injury reported
Hepatotoxicity (Hepatotoxicity [2]): drug-induced liver injury reported
Hepatotoxicity (Hepatotoxicity [3]): no drug-induced liver injury reported

Cn1c(CCCC(=O)O)nc2cc(N(CCCl)CCCl)ccc21 [BENDAMUSTINE]
Hepatotoxicity (Hepatotoxicity [1]): drug-induced liver injury reported
Hepatotoxicity (Hepatotoxicity [2]): no drug-induced liver injury reported
Hepatotoxicity (Hepatotoxicity [3]): no drug-induced liver injury reported

CN(C)CCCN1c2ccccc2Sc2ccc(Cl)cc21 [CHLORPROMAZINE]
Hepatotoxicity (Hepatotoxicity [1]): drug-induced liver injury reported
Hepatotoxicity (Hepatotoxicity [2]): drug-induced liver injury reported
Hepatotoxicity (Hepatotoxicity [3]): drug-induced liver injury reported

Cc1ncc(C[n+]2csc(CCO)c2C)c(N)n1 [THIAMINE ION]
Hepatotoxicity (Hepatotoxicity [1]; Liver): drug-induced liver injury reported
Hepatotoxicity (Hepatotoxicity [2]; Liver): drug-induced liver injury reported
Hepatotoxicity (Hepatotoxicity [3]; Liver): no drug-induced liver injury reported

Cc1cc(NS(=O)(=O)c2ccc(N)cc2)no1 [SULFAMETHOXAZOLE]
Hepatotoxicity (Hepatotoxicity [1]; Liver): drug-induced liver injury reported
Hepatotoxicity (Hepatotoxicity [2]; Liver): no drug-induced liver injury reported
Hepatotoxicity (Hepatotoxicity [3]; Liver): no drug-induced liver injury reported

CC1=C(CC(=O)O)c2cc(F)ccc2/C1=C\c1ccc([S+](C)[O-])cc1 (centres undefined)
Hepatotoxicity (Hepatotoxicity [1]): drug-induced liver injury reported
Hepatotoxicity (Hepatotoxicity [2]): drug-induced liver injury reported
Hepatotoxicity (Hepatotoxicity [3]): no drug-induced liver injury reported

COc1c2occc2c(OC)c2c(=O)cc(C)oc12 [KHELLIN]
Hepatotoxicity (Hepatotoxicity [1]): no drug-induced liver injury reported
Hepatotoxicity (Hepatotoxicity [2]): drug-induced liver injury reported
Hepatotoxicity (Hepatotoxicity [3]): no drug-induced liver injury reported

O=C(O)c1ccccc1O [SALICYLIC ACID]
Hepatotoxicity (Hepatotoxicity [1]; Liver): no drug-induced liver injury reported
Hepatotoxicity (Hepatotoxicity [2]; Liver): drug-induced liver injury reported
Hepatotoxicity (Hepatotoxicity [3]; Liver): no drug-induced liver injury reported
